Structures can show the parent of a compound that is named as a salt. Where two headings read alike, the source gives them in different places.
Biological target: T1, human LPA1 (Homo sapiens, UniProt Q92633)
T1 construct: expressed in transfected cells; host or cells: Chinese hamster ovary (CHO) cells
Assay: LPA1 functional antagonist assay (LPA-induced calcium flux in CHO cells overexpressing human LPA1)
Format: cell-based
Details: read-out: hLPA1 IC50
Summary of the method: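 Calcium flux was triggered by 10 nM LPA after 20 min room-temperature compound pre-incubation (final 0.08 nM to 5 μM, 0.5% DMSO) in human LPA1-overexpressing CHO cells carrying calcium dye. Buffer: HBSS with Ca/Mg, 20 mM HEPES, 0.1% fatty-acid-free BSA; IC50s from 4-parameter logistic fits.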

[1] = inhibition of calcium flux induced by 10 nM LPA, CHO cells overexpressing human LPA1

T1 sequence (Q92633 whole entry): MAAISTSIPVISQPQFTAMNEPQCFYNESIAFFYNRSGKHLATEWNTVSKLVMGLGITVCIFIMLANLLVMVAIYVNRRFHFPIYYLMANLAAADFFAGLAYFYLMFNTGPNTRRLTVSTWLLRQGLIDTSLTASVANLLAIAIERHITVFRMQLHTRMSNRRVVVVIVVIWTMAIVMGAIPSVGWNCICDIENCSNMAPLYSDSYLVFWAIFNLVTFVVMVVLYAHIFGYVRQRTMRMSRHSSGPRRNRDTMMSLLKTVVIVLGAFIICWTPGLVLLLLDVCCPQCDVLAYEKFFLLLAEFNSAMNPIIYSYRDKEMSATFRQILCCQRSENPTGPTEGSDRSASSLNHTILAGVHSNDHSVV

SMILES	IC50 [1] [nM]	IC50 [nM]
Cc1nc(-c2nnn(C)c2Cc2nnnn2Cc2ccccc2)ccc1O[C@H]1CCC[C@H](C(=O)O)C1 [Example 369, (1S,3S)-3-((6-(5-((1-benzyl-1H-tetrazol-5-yl)methyl)-1-methyl-1H-1,2,3-triazol-4-yl)-2-methylpyridin-3-yl)oxy)cyclohexane-1-carboxylic acid]		123
Cc1nc(-c2nnn(C)c2CNc2nc(C(C)C)cs2)ccc1O[C@H]1CCC[C@H](C(=O)O)C1 [Example 12]	745	
Cc1nc(-c2nnn(C)c2Cn2nnc(OC3CCC3)n2)ccc1O[C@H]1CCC[C@H](C(=O)O)C1 [Example 333, (1S,3S)-3-[(6-{5-[(5-cyclobutoxy-2H-1,2,3,4-tetrazol-2-yl)methyl]-1-methyl-1H-1,2,3-triazol-4-yl}-2-methylpyridin-3-yl)oxy]cyclo-hexane-1-carboxylic acid]	48	
Cc1nc(-c2nnn(C)c2CNc2nnc(CC(C)C)s2)ccc1O[C@H]1CCC[C@H](C(=O)O)C1 [Example 8]	455	
CCCCNc1nnn(Cc2c(-c3ccc(O[C@H]4CCC[C@H](C(=O)O)C4)c(C)n3)nnn2C)n1 [Example 362, (1S,3S)-3-((6-(5-((5-(butylamino)-2H-tetrazol-2-yl)methyl)-1-methyl-1H-1,2,3-triazol-4-yl)-2-methyl-pyridin-3-yl)oxy)cyclohexane-1-carboxylic acid]	316	
Cc1nc(-c2nnn(C)c2Cc2nnn(Cc3ccccc3)n2)ccc1O[C@H]1CCC[C@H](C(=O)O)C1 [Example 402, (1S,3S)-3-[(6-{5-[(2-benzyl-2H-1,2,3,4-tetrazol-5-yl)methyl]-1-methyl-1H-1,2,3-triazol-4-yl}-2-methylpyridin-3-yl)oxy]cyclo-hexane-1-carboxylic acid]		47
Cc1nc(-c2nnn(C)c2CNc2cnn(C(C)C)n2)ccc1O[C@H]1CCC[C@H](C(=O)O)C1 [Example 124]	337	
CCCCc1nnc(NCc2c(-c3ccc(O[C@H]4CCC[C@H](C(=O)O)C4)c(C)n3)nnn2C)o1 [Example 53]	297	
Cc1nc(-c2nnn(C)c2CNc2nnc(C(C)C)o2)ccc1O[C@H]1CCC[C@H](C(=O)O)C1 [Example 42, (1S,3S)-3-((6-(5-(((5-Isopropyl-1,3,4-oxadiazol-2-yl)amino)methyl)-1-methyl-1H-1,2,3-triazol-4-yl)-2-methylpyridin-3-yl)oxy)cyclohexane-1-carboxylic acid, 2 TFA salt]	1410	
Cc1nc(-c2nnn(C)c2Cn2nnc(OCC3CC(F)(F)C3)n2)ccc1O[C@H]1CCC[C@@H](C(=O)O)C1 [Example 334, (1R,3S)-3-({6-[5-({5-[(3,3-difluoro-cyclobutyl)methoxy]-2H-1,2,3,4-tetrazol-2-yl}methyl)-1-methyl-1H-1,2,3-triazol-4-yl]-2-methylpyridin-3-yl}oxy)cyclohexane-1-carboxylic acid]	258	

Results, then the compound that gave them:

IC50 [1] [nM]	IC50 [nM]	SMILES
33		Cc1nc(-c2nnn(C)c2CNc2cnn(CC3CCC3)n2)ccc1O[C@H]1CCC[C@H](C(=O)O)C1 [Example 24, (1 S,3 S)-3-((6-(5-(((2-(cyclobutylmethyl)-2H-1,2,3-triazol-4-yl)amino)methyl)-1-methyl-1H-1,2,3-triazol-4-yl)-2-methylpyridin-3-yl)oxy)cyclohexane-1-carboxylic acid]
226		Cc1nc(-c2nnn(C)c2Cn2nnnc2C2CCC2)ccc1O[C@H]1CCC[C@H](C(=O)O)C1 [Example 354, (1S,3S)-3-[(6-{5-[(5-cyclobutyl-1H-1,2,3,4-tetrazol-1-yl)methyl]-1-methyl-1H-1,2,3-triazol-4-yl}-2-methylpyridin-3-yl)oxy]cyclo-hexane-1-carboxylic acid]
57		Cc1nc(-c2nnn(C)c2Cn2ncc(-c3ccccc3)n2)ccc1O[C@H]1CCC[C@H](C(=O)O)C1 [Example 273, (1 S,3S)-3-((2-methyl-6-(1-methyl-5-((4-phenyl-2H-1,2,3-triazol-2-yl)methyl)-1H-1,2,3-triazol-4-yl)pyridin-3-yl)oxy)cyclohexane-1-carboxylic acid]
38		Cc1nc(-c2nnn(C)c2Cn2nnc(Cc3ccc(Cl)cc3)n2)ccc1O[C@H]1CCC[C@H](C(=O)O)C1 [Example 324, (1S,3S)-3-((6-(5-((5-(4-chloro-benzyl)-2H-tetrazol-2-yl)methyl)-1-methyl-1H-1,2,3-triazol-4-yl)-2-methylpyridin-3-yl)oxy)cyclo-hexane-1-carboxylic acid]
92		CCOC(C)c1nc(NCc2c(-c3ccc(O[C@H]4CCC[C@H](C(=O)O)C4)c(C)n3)nnn2C)no1 (mixture of isomers) [Example 222, (1S,3S)-3-((6-(5-(((5-(1-ethoxyethyl)-1,2,4-oxadiazol-3-yl)amino)methyl)-1-methyl-1H-1,2,3-triazol-4-yl)-2-methylpyridin-3-yl)oxy)cyclohexane-1-carboxylic acid]
25		Cc1nc(-c2nnn(C)c2CNc2noc(C(C)C3CC3)n2)ccc1O[C@H]1CCC[C@H](C(=O)O)C1 (stereo partly shown) [Example 194]
46		Cc1nc(-c2nnn(C)c2CNc2nc(C)n(-c3ccccc3)n2)ccc1O[C@H]1CCC[C@H](C(=O)O)C1 [Example 37]
55		Cc1nc(-c2nnn(C)c2CNc2noc(C3CC(F)C3)n2)ccc1O[C@H]1CCC[C@H](C(=O)O)C1 (stereo partly shown) [Example 190]
192		Cc1nc(-c2nnn(C)c2Cn2nnc(OCC3CC3)n2)ccc1O[C@H]1CCC[C@@H](C(=O)O)C1 [Example 339, (1R,3S)-3-{[6-(5-{[5-(cyclopropyl-methoxy)-2H-1,2,3,4-tetrazol-2-yl]methyl}-1-methyl-1H-1,2,3-triazol-4-yl)-2-methylpyridin-3-yl]oxy}cyclohexane-1-carboxylic acid]
16		Cc1nc(-c2nnn(C)c2CNc2noc(CCC(C)F)n2)ccc1O[C@H]1CCC[C@H](C(=O)O)C1 (stereo partly shown) [Example 167]
123		Cc1nc(-c2nnn(C)c2CNc2noc(C(C)OC3CC3)n2)ccc1O[C@H]1CCC[C@H](C(=O)O)C1 (mixture of isomers) [Example 226, (1S,3S)-3-((6-(5-(((5-(1-cyclopro-poxyethyl)-1,2,4-oxadiazol-3-yl)amino)methyl)-1-methyl-1H-1,2,3-triazol-4-yl)-2-methylpyridin-3-yl)oxy)cyclohexane-1-carboxylic acid]
234		Cc1nc(-c2nnn(C)c2Cn2nnc(N3CCCC3)n2)ccc1O[C@H]1CCC[C@H](C(=O)O)C1 [Example 312, (1S,3S)-3-{[2-methyl-6-(1-methyl-5-{[5-(pyrrolidin-1-yl)-2H-1,2,3,4-tetrazol-2-yl]methyl}-1H-1,2,3-triazol-4-yl)pyridin-3-yl]oxy}cyclohexane-1-carboxylic acid]
28		CCOc1nc(NCc2c(-c3ccc(O[C@H]4CCC[C@H](C(=O)O)C4)c(C)n3)nnn2C)ns1 [Example 5]
55		Cc1nc(-c2nnn(C)c2Cc2nnc(Cc3ccccc3)o2)ccc1O[C@H]1CCC[C@H](C(=O)O)C1 [Example 73, (1 S,3 S)-3-((6-(5-((5-benzyl-1,3,4-oxadiazol-2-yl)methyl)-1-methyl-1H-1,2,3-triazol-4-yl)-2-methylpyridin-3-yl)oxy)cyclohexane-1-carboxylic acid]
228		Cc1nc(-c2nnn(C)c2Cn2nc(C3CCCC3)oc2=N)ccc1O[C@H]1CCC[C@H](C(=O)O)C1 [Example 45]
